The subject of assay [1] is NCI-H441. Description: In vivo combination of 224G11 and Docetaxel on NCI-H441 xenograft model. Also noted: species or system Athymic nude mice. Conditions: D11 to D35; Docetaxel 7.5 mg/kg i.p. As to the method: (§1) NCI-H441 cells from ATCC were routinely cultured in RPMI 1640 medium, 10% FCS, 1% L-Glutamine. Cells were split two days before engraftment being in exponential phase of growth. Nine million NCI-H441 cells were engrafted to Athymic nude mice. […] Mice were treated i.p. either with a loading dose of 2 mg of 224G11 Mab/mouse and then twice a week with 1 mg of antibody/mouse or with 4 injections of Docetaxel (D5, D12, D19, D26) at 7.5 mg/kg. A third group administered with the combine treatment was also included. Docetaxel was given by i.p. injections. Tumor volume was measured twice a week and calculated by the formula: π/6×length×width×height and animal weights were monitored every day over the period of Docetaxel treatment. Statistical analysis was performed at each measured time using either a t-test or a Mann-Whitney test. […] Results are represented in FIG. 47.

For assay [2], the system named is NCI-H441. Description: In vivo combination of 224G11 and Doxorubicin on NCI-H441 xenograft model. The following applies: D11 to D39; Doxorubicin 5 mg/kg i.v. Also noted: species or system Athymic nude mice. As to the method: as §1, with “growth. Ten” for “growth. Nine”, “of Doxorubicin” for “of Docetaxel”, “at 5” for “at 7.5”, “included. Doxorubicin” for “included. Docetaxel”, “by i.v.” for “by i.p.”, “FIG. 46.” for “FIG. 47.”

The next assay addresses T1, c-Met-Fc (Homo sapiens, UniProt P08581).
T1 construct: c-Met extracellular domain fusion protein (10-15 g/dose/mouse) (R&D Systems, Catalog #358MT); purchased R&D Systems
Put plainly: Displacement of [125I]-HGF binding to immobilized c-Met. Conditions: 0.1 pM to 1 μM. As to the method:
To determine whether the anti-c-Met antibodies were able to displace HGF, binding experiments were set up. Briefly, protein A FlashPlate 96-well microplates (Perkin Elmer) were saturated with 0.5% gelatine in PBS (200 μl/well, 2 h at room temperature) before adding recombinant c-Met-Fc (R&D Systems) as a coating protein. […] of a 1 μg/ml c-Met-Fc solution in PBS were added to each well. Plates were then incubated overnight at 4° C. Free residual Protein A sites were further saturated with a non relevant hIgG (0.5 μg/well in PBS) for 2 h at room temperature. Plates were washed with PBS after each step.
For competition assays, binding of [^125I]-HGF (specific activity ˜2,000 Ci/mmol) at 200 pM to immobilized c-Met was measured in the presence of varying concentrations of the anti-c-Met monoclonal antibodies 11E1, 224G11, 223C4, 227H1 or HGF (R&D Systems) ranging from 0.1 pM to 1 μM in PBS pH 7.4. The plates were incubated at room temperature for 6 h, then counted on a Packard Top Count Microplate Scintillation Counter. Non specific binding was determined in the presence of […] of HGF. The monoclonal antibody 9G4, which is not directed at c-Met but specifically recognizes an E. coli protein, was used as mouse IgG1 isotype control.
Percent of total specific [^125I]-HGF binding was plotted as a function of ligand concentration on semilog graphs. […]
(In general: Displacement assays read how much labelled ligand stays bound in the presence of the test substance.)

For another assay, the system named is G55. Conditions: glioblastoma growing independently of HGF; cited from earlier work.

T1 sequence (P08581 25-932 limits assumed): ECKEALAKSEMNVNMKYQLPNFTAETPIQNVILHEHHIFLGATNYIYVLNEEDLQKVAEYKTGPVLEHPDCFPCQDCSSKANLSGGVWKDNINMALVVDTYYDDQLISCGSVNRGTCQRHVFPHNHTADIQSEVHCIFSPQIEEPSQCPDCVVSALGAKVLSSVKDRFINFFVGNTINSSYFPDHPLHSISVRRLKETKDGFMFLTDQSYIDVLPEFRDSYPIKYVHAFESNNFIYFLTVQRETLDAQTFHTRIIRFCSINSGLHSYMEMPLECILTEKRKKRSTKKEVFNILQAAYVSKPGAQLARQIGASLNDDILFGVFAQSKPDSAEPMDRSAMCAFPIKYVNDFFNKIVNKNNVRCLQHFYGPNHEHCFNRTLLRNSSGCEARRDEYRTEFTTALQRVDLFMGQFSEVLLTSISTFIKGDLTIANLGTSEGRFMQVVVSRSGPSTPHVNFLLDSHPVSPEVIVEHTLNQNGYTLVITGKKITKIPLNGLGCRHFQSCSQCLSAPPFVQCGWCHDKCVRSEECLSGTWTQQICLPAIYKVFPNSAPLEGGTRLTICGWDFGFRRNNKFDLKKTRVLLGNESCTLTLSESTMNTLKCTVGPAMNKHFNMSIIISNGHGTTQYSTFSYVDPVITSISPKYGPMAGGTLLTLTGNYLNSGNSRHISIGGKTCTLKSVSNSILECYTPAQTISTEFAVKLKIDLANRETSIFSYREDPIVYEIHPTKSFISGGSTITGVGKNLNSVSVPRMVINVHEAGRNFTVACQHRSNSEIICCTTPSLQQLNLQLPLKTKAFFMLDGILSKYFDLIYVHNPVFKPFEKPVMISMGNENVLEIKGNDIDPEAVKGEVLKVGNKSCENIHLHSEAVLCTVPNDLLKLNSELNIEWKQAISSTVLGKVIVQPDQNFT

Regarding `CC(=O)O[C@@]12CO[C@@H]1C[C@H](O)[C@@]1(C)C(=O)[C@H](O)C3=C(C)[C@@H](OC(=O)[C@H](O)[C@@H](NC(=O)OC(C)(C)C)c4ccccc4)C[C@@](O)([C@@H](OC(=O)c4ccccc4)[C@H]21)C3(C)C` [Docetaxel, reference compound], in the assay on NCI-H441 [1], the “anti-tumor activity compared to the control group” value is recorded as “significant anti-tumor activity”.
Regarding `COc1cccc2c1C(=O)c1c(O)c3c(c(O)c1C2=O)C[C@@](O)(C(=O)CO)C[C@@H]3O[C@H]1C[C@H](N)[C@H](O)[C@H](C)O1` [Doxorubicin, reference compound], in the assay on NCI-H441 [2], the “anti-tumor activity compared to the control group” value was “significant anti-tumor activity”.
Regarding “HGF: hepatocyte growth factor (R&D Systems), c-Met ligand used as unlabeled competitor”, in the assay with c-Met-Fc, the “displacement of [125I]-HGF binding to immobilized c-Met” value is on record as “fully displace”.

B1: OA5D5: monovalent engineered form of 5D5 produced as a recombinant protein in E. Coli (Genentech) (antibody, chains of the INN, looked up, V domains shown)
VH: EVQLVESGGGLVQPGGSLRLSCAASGYTFTSYWLHWVRQAPGKGLEWVGMIDPSNSDTRFNPNFKDRFTISADTSKNTAYLQMNSLRAEDTAVYYCATYRSYVTPLDYWGQGTLVTVSS
VL: DIQMTQSPSSLSASVGDRVTITCKSSQSLLYTSSQKNYLAWYQQKPGKAPKLLIYWASTRESGVPSRFSGSGSGTDFTLTISSLQPEDFATYYCQQYYAYPWTFGQGTKVEIK
modifications: one-armed monovalent antibody
Consider B1, for which the “effect on G55 tumor growth” value with G55 is reported as “no significant effect”.
